Laboratory results: patent US7557110B2, “Pyrazolo[1,5-A] pyrimidine derivatives” (Teijin Pharma Limited, priority 2003, dated 2009)
Read-outs that look alike come from different tables or passages of the source.

Columns and labels:
[1] = molecular target: MAPKAP-K2 (Homo sapiens, UniProt P49137); experiment: MAPKAP-K2 enzyme activity inhibition (33P-ATP filter plate kinase assay); assay type: biochemical; settings: MAPKAP-K2 inhibitory activity; assays conducted at typically 1-100 μM; further: key: +: active; ++: more active; +++: very active
Chain of MAPKAP-K2 (P49137 whole entry): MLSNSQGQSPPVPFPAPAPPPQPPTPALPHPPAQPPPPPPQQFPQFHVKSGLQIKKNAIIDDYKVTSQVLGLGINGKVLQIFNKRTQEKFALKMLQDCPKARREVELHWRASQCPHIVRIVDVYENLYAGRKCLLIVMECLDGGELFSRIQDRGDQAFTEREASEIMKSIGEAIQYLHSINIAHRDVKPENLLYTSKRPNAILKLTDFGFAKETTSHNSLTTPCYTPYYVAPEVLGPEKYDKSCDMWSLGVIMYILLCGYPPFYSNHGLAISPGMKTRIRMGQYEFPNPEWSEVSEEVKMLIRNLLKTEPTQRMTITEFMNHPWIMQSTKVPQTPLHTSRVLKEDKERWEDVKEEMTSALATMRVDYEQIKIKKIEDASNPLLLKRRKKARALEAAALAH
Procedure: [General Procedure for Measurement of MAPKAP-K2 Enzyme Activity Inhibition]
After conducting the reaction for 30 minutes at room temperature, an equivalent volume of a 200 mM phosphoric acid solution was added to suspend the reaction, and 90 μL of the reaction product was adsorbed onto a MultiScreen PH plate (Millipore) and rinsed with a 100 mM phosphoric acid solution. After drying the plate, 30 μL of MicroScint-O (Packard BioScience) was added, and the cpm was measured with a scintillation counter to determine the inhibiting activity. Substrate peptide is […]

[2] = molecular target: CDK-2 (Homo sapiens, UniProt P24941); experiment: CDK-2 enzyme activity inhibition (33P-ATP filter plate kinase assay); assay type: biochemical
From the text: [General Procedure for Measurement of CDK-2 Enzyme Activity Inhibition]

[3] = read-out: CDK-2 inhibition IC50

| Structure (SMILES) | activity (efficacy against MAPKAP-K2) [1] | IC50 [2, 3] [µM] | IC50 [2] [µM] |
| --- | --- | --- | --- |
| CCOc1ccc(Nc2cc(N[C@H]3CC[C@H](N)CC3)nc3c(C#N)cnn23)cc1 [Compound 64] | +++ | < 100 | – |
| Cc1c(N[C@H]2CC[C@H](N)CC2)nc2ccnn2c1Nc1ccc(OCCCl)cc1 [Compound 199] | +++ | < 100 | – |
| Cc1ccc(Nc2c(C)c(NC3CCCNC3)nc3ccnn23)cc1C (stereo not drawn) [Compound 89] | +++ | < 100 | – |
| Cc1c(NC2CCC(N)CC2)nc2ccnn2c1Nc1ccc(OC2CCNC2)cc1 (stereo not drawn) [Compound 229] | +++ | < 100 | – |
| CCCOc1ccc(Nc2c(C)c(N[C@H]3CC[C@H](N)CC3)nc3ccnn23)cc1 [Compound 201] | +++ | < 100 | – |
| COc1c(N[C@H]2CC[C@H](N)CC2)nc2ccnn2c1Nc1ccc(F)c(Cl)c1 [Compound 172] | ++ | < 100 | – |
| Cc1c(NC2CCC(N)CC2)nc2ccnn2c1Nc1ccc(OCCC2CCCCN2)cc1 (stereo not drawn) [Compound 231] | ++ | < 100 | – |
| N[C@H]1CC[C@H](Nc2cc(NCc3ccc(F)c(Cl)c3)n3ncc(Br)c3n2)CC1 [Compound 13] | + | < 100 | – |
| Cc1c(N[C@H]2CC[C@H](N)CC2)nc2ccnn2c1Nc1ccc(OC2CCCC2)cc1 [Compound 216] | +++ | < 100 | – |
| CCOc1ccc(Nc2c(C(C)C)c(N[C@H]3CC[C@H](N)CC3)nc3ccnn23)cc1 [Compound 114] | +++ | < 100 | – |
| CCc1c(N[C@H]2CC[C@H](N)CC2)nc2ccnn2c1Nc1ccc(N2CCCC2=O)cc1 [Compound 125] | ++ | < 100 | – |
| Cc1c(N[C@H]2CC[C@H](N)CC2)nc2ccnn2c1Nc1ccc(OC(C)C)cc1 [Compound 197, {5-[(trans-4-aminocyclohexyl)amino]-6-methyl(pyrazolo[1,5-a]pyrimidin-7-yl)}[4-(methylethoxy)phenyl]amine] | +++ | < 100 | – |
| Cc1c(NC2CCCNC2)nc2ccnn2c1Nc1ccc(F)c(Cl)c1 (stereo not drawn) [Compound 191] | +++ | – | < 100 |
| Cc1c(N[C@H]2CC[C@H](N)CC2)nc2ccnn2c1Nc1cccc(OCc2ccccc2)c1 [Compound 243] | ++ | < 100 | – |
| Cc1c(N[C@H]2CC[C@H](N)CC2)nc2ccnn2c1Nc1ccc(OC2CCOCC2)cc1 [Compound 219] | +++ | < 100 | – |
| Cc1c(N[C@H]2CC[C@H](N)CC2)nc2ccnn2c1Nc1ccc(OCc2ccc(Cl)cc2)cc1 [Compound 211] | +++ | < 100 | – |
| CCOc1ccc(Nc2c(OC)c(NC3CCCNC3)nc3ccnn23)cc1 (stereo not drawn) [Compound 173] | +++ | < 100 | – |
| Cc1c(N[C@H]2CC[C@H](N)CC2)nc2ccnn2c1Nc1ccc(OCC2CCCCC2)cc1 [Compound 237] | ++ | < 100 | – |
| CCOc1cccc(Nc2c(C)c(N[C@H]3CC[C@H](N)CC3)nc3ccnn23)c1 [Compound 81] | +++ | < 100 | – |
| N#Cc1cnn2c(Nc3ccc(F)c(Cl)c3)cc(N[C@H]3CC[C@H](N)CC3)nc12 [Compound 1] | ++ | – | < 100 |
| N#Cc1cnn2c(Nc3ccccc3Cl)cc(N[C@H]3CC[C@H](N)CC3)nc12 [Compound 170] | +++ | < 100 | – |
| COc1ccc(Nc2c(C)c(N[C@H]3CC[C@H](N)CC3)nc3ccnn23)cc1 [Compound 203] | +++ | < 100 | – |
| Cc1c(N[C@H]2CC[C@H](N)CC2)nc2ccnn2c1Nc1ccc(OC(F)(F)F)cc1 [Compound 179] | +++ | < 100 | – |
| CCOc1ccc(Nc2c(-c3ccc(OC)cc3)c(N[C@H]3CC[C@H](N)CC3)nc3ccnn23)cc1 [Compound 140] | +++ | < 100 | – |
| Cc1c(N[C@H]2CC[C@H](N)CC2)nc2ccnn2c1Nc1ccc(OCCN2CCCCC2)cc1 [Compound 223] | +++ | < 100 | – |
| Cc1c(N[C@H]2CC[C@H](N)CC2)nc2ccnn2c1Nc1ccc(OCc2cccnc2)cc1 [Compound 222] | +++ | < 100 | – |
| Cc1c(N[C@H]2CC[C@H](N)CC2)nc2ccnn2c1Nc1ccc(OCc2ccccc2Cl)cc1 [Compound 213] | +++ | < 100 | – |
| Cc1c(NC2CCC(N)CC2)nc2ccnn2c1Nc1ccc(OCC2CCCN(C)C2)cc1 (stereo not drawn) [Compound 226] | +++ | < 100 | – |
| Cc1c(NC2CCCNC2)nc2ccnn2c1Nc1ccccc1F (stereo not drawn) [Compound 156] | +++ | < 100 | – |

Next, values leading:

| activity (efficacy against MAPKAP-K2) [1] | IC50 [2, 3] [µM] | IC50 [2] [µM] | Structure (SMILES) |
| --- | --- | --- | --- |
| +++ | < 100 | – | Cc1c(NC2CCC(N)CC2)nc2ccnn2c1Nc1ccc(OCC2CCCCN2)cc1 (stereo not drawn) [Compound 251] |
| +++ | < 100 | – | Cc1c(NC2CCCNC2)nc2ccnn2c1Nc1ccc(-c2cccc(N)c2)cc1 (stereo not drawn) [Compound 444] |
| +++ | < 100 | – | Cc1c(N[C@H]2CC[C@H](N)CC2)nc2ccnn2c1Nc1ccc(-c2ccccc2F)cc1 [Compound 305] |
| +++ | < 100 | – | Cc1ccccc1-c1ccc(Nc2c(C)c(N[C@H]3CC[C@H](N)CC3)nc3ccnn23)cc1 [Compound 321] |
| +++ | < 100 | – | Cc1c(N[C@H]2CC[C@H](N)CC2)nc2ccnn2c1Nc1ccc(-c2cccc(C#N)c2)cc1 [Compound 319] |
| ++ | < 100 | – | Cc1c(N[C@H]2CC[C@H](N)CC2)nc2ccnn2c1Nc1ccc(-c2csc3ccccc23)cc1 [Compound 292] |
| +++ | < 100 | – | Cc1c(N[C@H]2CC[C@H](N)CC2)nc2ccnn2c1Nc1ccc(C(=O)Nc2ccccc2)cc1 [Compound 776] |
| ++ | < 100 | – | Cc1c(N[C@H]2CC[C@H](N)CC2)nc2ccnn2c1Nc1cccc(OCc2cccnc2)c1 [Compound 274] |
| ++ | < 100 | – | N[C@H]1CC[C@H](Nc2cc(NCc3cccc(Cl)c3)n3ncc(I)c3n2)CC1 [Compound 297, {5-[(trans-4-aminocyclohexyl)amino]-3-iodo(pyrazolo[1,5-a]pyrimidin-7-yl)}[(3-chlorophenyl)methyl]amine] |
| +++ | < 100 | – | Cc1c(N[C@H]2CC[C@H](N)CC2)nc2ccnn2c1Nc1ccc(C(=O)c2ccccc2)cc1 [Compound 778] |
| +++ | < 100 | – | Cc1c(N[C@H]2CC[C@H](N)CC2)nc2ccnn2c1Nc1ccc(-c2ccc(C#N)cc2)cc1 [Compound 318] |
| +++ | < 100 | – | Cc1c(N[C@H]2CC[C@H](N)CC2)nc2ccnn2c1Nc1ccc(-c2ccc(Cl)cc2)cc1 [Compound 312] |
| +++ | < 100 | – | Cc1c(N[C@H]2CC[C@H](N)CC2)nc2ccnn2c1Nc1ccc(-c2ccccc2)cc1 [Compound 284, {5-[(trans-4-aminocyclohexyl)amino]-6-methyl(pyrazolo[1,5-a]pyrimidin-7-yl)}(4-phenylphenyl)amine] |
| +++ | < 100 | – | Cc1c(N[C@H]2CC[C@H](N)CC2)nc2ccnn2c1Nc1ccc(-c2cccc(C(F)(F)F)c2)cc1 [Compound 324] |
| ++ | < 100 | – | CCOc1ccc(Nc2c(C)c(N[C@@H]3CN[C@@H](C(=O)O)C3)nc3ccnn23)cc1 [Compound 772] |
| +++ | < 100 | – | COc1ccccc1-c1ccc(Nc2c(C)c(N[C@H]3CC[C@H](N)CC3)nc3ccnn23)cc1 [Compound 287] |
| +++ | < 100 | – | Cc1c(N[C@H]2CC[C@H](N)CC2)nc2ccnn2c1Nc1ccc(-c2cccc(O)c2)cc1 [Compound 307] |
| +++ | < 100 | – | Cc1c(N[C@H]2CC[C@H](N)CC2)nc2ccnn2c1Nc1ccc(OC(F)(F)F)c(Cl)c1 [Compound 785] |
| +++ | < 100 | – | Cc1csc(-c2ccc(Nc3c(C)c(N[C@H]4CC[C@H](N)CC4)nc4ccnn34)cc2)c1 [Compound 357] |
| ++ | < 100 | – | Cc1c(N[C@H]2CC[C@H](N)CC2)nc2ccnn2c1Nc1cccc(OCc2ccc(Cl)cc2)c1 [Compound 248] |
| +++ | < 100 | – | Cc1c(N[C@H]2CC[C@H](N)CC2)nc2ccnn2c1Nc1ccc(-c2ccc(O)cc2)cc1 [Compound 306] |
| +++ | < 100 | – | Cc1c(N[C@H]2CC[C@H](N)CC2)nc2ccnn2c1Nc1ccc(-c2cc3ccccc3[nH]2)cc1 [Compound 423] |
| ++ | < 100 | – | Cc1c(N[C@H]2CC[C@H](N)CC2)nc2ccnn2c1Nc1ccc(-c2ccccc2C(F)(F)F)cc1 [Compound 323] |
| ++ | < 100 | – | Cc1c(N[C@H]2CC[C@H](N)CC2)nc2ccnn2c1Nc1ccc(-c2ccsc2C=O)cc1 [Compound 310] |
| +++ | < 100 | – | Cc1c(N[C@H]2CC[C@H](N)CC2)nc2ccnn2c1Nc1ccc(C(=O)NC2CCCC2)cc1 [Compound 463] |
